Source: US20260138985A1, “Azepino-Indoles for the Treatment of Neurological and Psychiatric Disorders” (Terran Biosciences Inc., priority 2021, published 2026)

How the values were obtained:
5-HT2C receptor = molecular target: T1, 5-HT2C receptor (Homo sapiens, UniProt P28335); assay: Calcium mobilization assay, antagonist format, 5-HT2C receptor; type: cell-based; parameters: dose or concentration left out as unconfirmed
T1 construct: host or cells: unnamed cell lines
T1 sequence (P28335 33-458): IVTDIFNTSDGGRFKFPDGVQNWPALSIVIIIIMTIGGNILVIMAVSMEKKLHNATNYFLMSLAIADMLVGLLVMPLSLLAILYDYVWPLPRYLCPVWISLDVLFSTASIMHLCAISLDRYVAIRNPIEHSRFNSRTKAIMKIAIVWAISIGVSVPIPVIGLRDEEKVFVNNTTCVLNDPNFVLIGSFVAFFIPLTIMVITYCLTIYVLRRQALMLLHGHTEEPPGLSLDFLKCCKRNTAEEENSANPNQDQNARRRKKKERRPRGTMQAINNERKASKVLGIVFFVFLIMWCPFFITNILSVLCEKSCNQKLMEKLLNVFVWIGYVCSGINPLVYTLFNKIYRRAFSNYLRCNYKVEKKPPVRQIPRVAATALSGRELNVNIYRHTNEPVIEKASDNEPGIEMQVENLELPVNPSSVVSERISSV
Description: (§1) Protocol—in vitro testing at select 5-hydroxytryptamine (5-HT; serotonin) receptors was conducted.
(§2) • 1. Cell lines were expanded from freezer stocks according to standard procedures. • 2. Cells were seeded in a total volume of 20 μL into black-walled, clear-bottom, Poly-D-lysine coated 384-well microplates and incubated at 37° C. for the appropriate time prior to testing.
(§3) • 1. Assays were performed in 1×Dye Loading Buffer consisting of 1× Dye, 1× Additive A and 2.5 mM Probenecid in HBSS/20 mM Hepes. Probenicid was prepared fresh. • 2. Cells were loaded with dye prior to testing. Media was aspirated from cells and replaced with 20 μL Dye Loading Buffer. • 3. Cells were incubated for 30-60 minutes at 37° C.
• 1. For antagonist determination, cells were pre-incubated with sample followed by agonist challenge at the EC80 concentration. • 2. Intermediate dilution of sample stocks was performed to generate 3× sample in assay buffer. • 3. After dye loading, cells were removed from the incubator and […] 3× sample was added. Cells were incubated for 30 minutes at room temperature in the dark to equilibrate plate temperature. Vehicle concentration was 1%. • 4. Compound antagonist activity was measured on a FLIPR Tetra (MDS). Calcium mobilization was monitored for 2 minutes and 10 μL EC80 agonist in HBSS/20 mM Hepes was added to the cells 5 seconds into the assay.
(§4) • 1. Compound activity was analyzed using CBIS data analysis suite (ChemInnovation, CA). • 2. For agonist mode assays, percentage activity is calculated using the following formula: % Activity=100%×(mean RFU of test sample−mean RFU of vehicle control)/(mean MAX RFU control ligand −mean RFU of vehicle control). • 3. For positive allosteric mode assays, percentage modulation was calculated using the following formula: % Modulation=100%×((mean RFU of test sample−mean RFU of EC20 control)/(mean RFU of MAX control ligand −mean RFU of EC20 control)). • 4. For antagonist and negative allosteric modulation mode assays, percentage inhibition is calculated using the following formula: % Inhibition=100%×(1−(mean RFU of test sample−mean RFU of vehicle control)/(mean RFU of EC80 control−mean RFU of vehicle control)).
(§5) As discussed above, agonism, or partial agonism, of the 5-HT2A receptor (also known as positive allosteric modulation, or 5-HT2A modulation) is useful for the treatment of neurological and psychiatric disorders. For example, 5-HT2A agonism has been correlated with the promotion of neural plasticity (Ly et al., 2018). Agonism of the 5-HT2B receptor has been associated with unwanted cardiac valvulopathy side-effects, a form of cardio-toxicity (Rothman et al., Circulation. 2000, 102, 2836-2841; Fitzgerald et al., Molecular Pharmacology 2000, 57, 75-81). […] Antagonists of the 5-HT2C receptor are also useful for the treatment of neurological and psychiatric disorders (Kennett et al., Neuropharmacology 1997, 36, 609-620).

[1] = Metabolic stability in human liver microsomes; type: in vitro ADME; conditions: for difference in half-life and intrinsic clearance versus comparator: Compound 163 vs 8-methoxy-1,2,3,4,5,6-hexahydroazepino[4,5-b]indole, Compounds 1, 2 and 3 vs TBG; for half-life at 0.2 μM: pH 7.4, half life; for half-life at 0.2 μM / microsomal CLint at 0.2 μM / CLint scaled at 0.2 μM: values marked * average of two experiments; for microsomal CLint at 0.2 μM: pH 7.4, intrinsic clearance, read-out: CLint(mic); for CLint scaled at 0.2 μM: pH 7.4, scaled from CLint(mic)
Description: Microsomal Assay: Human liver microsomes (20 mg/mL) are obtained from Xenotech, LLC (Lenexa, KS). β-nicotinamide adenine dinucleotide phosphate, reduced form (NADPH), magnesium chloride (MgCl2), and dimethyl sulfoxide (DMSO) are purchased from Sigma-Aldrich.
Determination of Metabolic Stability: 7.5 mM stock solutions of test compounds of the above structural formula (e.g., of an embodiment or aspect of embodiment thereof described herein), or pharmaceutically acceptable salt thereof, are prepared in DMSO. […] The diluted microsomes are added to wells of a 96-well deep-well polypropylene plate in triplicate. […] Reactions are initiated by addition of pre-warmed NADPH solution. The final reaction volume is 0.5 mL and contains 4.0 mg/mL human liver microsomes, 0.2 μM test compound, and 2 mM NADPH in 0.1 M potassium phosphate buffer, pH 7.4, and 3 mM MgCl2. The reaction mixtures are incubated at 37° C., and […] aliquots are removed at 0, 5, 10, 20, and 30 minutes and added to shallow-well 96-well plates which contain […] of ice-cold ACN (acetonitrile) with internal standard to stop the reactions. The plates are stored at 4° C. for 20 minutes after which […] of water is added to the wells of the plate before centrifugation to pellet precipitated proteins. Supernatants are transferred to another 96-well plate and analyzed for amounts of parent remaining by LC-MS/MS using an Applied Bio-systems API 4000 mass spectrometer. The same procedure is followed for the non-deuterated counterpart of the compound and the positive control, 7-ethoxycoumarin (1 μM). Testing is done in triplicate.
Data analysis: The in vitro Ti/s for test compounds are calculated from the slopes of the linear regression of % parent remaining (In) vs incubation time relationship.
[formula] • k=−[slope of linear regression of % parent remaining (In) vs incubation time] • The apparent intrinsic clearance is calculated using the following equation: […]
Data analysis is performed using Microsoft Excel Software.

5-HT2B receptor = molecular target: T2, 5-HT2B receptor (Homo sapiens, UniProt P41595); assay: Calcium mobilization assay, agonist format, 5-HT2B receptor; type: cell-based; conditions: read-out: 5-HT2B agonist Efficacy @ 5 µM
T2 construct: host or cells: unnamed cell lines
T2 sequence (P41595 whole entry): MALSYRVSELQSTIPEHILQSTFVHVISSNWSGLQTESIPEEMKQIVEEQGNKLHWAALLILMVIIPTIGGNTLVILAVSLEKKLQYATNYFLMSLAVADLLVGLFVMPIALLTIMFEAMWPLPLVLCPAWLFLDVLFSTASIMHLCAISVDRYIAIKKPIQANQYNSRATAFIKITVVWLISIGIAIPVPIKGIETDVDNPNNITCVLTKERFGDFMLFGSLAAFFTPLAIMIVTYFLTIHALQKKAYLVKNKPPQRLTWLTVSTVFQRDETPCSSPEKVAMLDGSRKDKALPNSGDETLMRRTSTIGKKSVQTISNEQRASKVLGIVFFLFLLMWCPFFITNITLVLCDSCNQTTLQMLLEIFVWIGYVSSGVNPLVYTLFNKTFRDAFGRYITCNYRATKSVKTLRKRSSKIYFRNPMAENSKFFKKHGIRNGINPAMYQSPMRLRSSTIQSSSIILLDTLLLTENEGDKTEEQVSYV
Description: as §1, §2, §3
(§6) • 1. For agonist determination, cells were incubated with sample to induce response. • 2. After dye loading, cells were removed from the incubator and 10 μL HBSS/20 mM Hepes was added. 3× vehicle was included in the buffer when performing agonist dose curves to define • the EC80 for subsequent antagonist assays. Cells were incubated for 30 minutes at room temperature in the dark to equilibrate plate temperature. • 3. Intermediate dilution of sample stocks was performed to generate 4× sample in assay buffer. • 4. Compound agonist activity was measured on a FLIPR Tetra (MDS). Calcium mobilization was monitored for 2 minutes and 10 μL 4× sample in HBSS/20 mM Hepes was added to the cells 5 seconds into the assay.
as §4, §5

5-HT2A receptor = molecular target: T3, 5-HT2A receptor (Homo sapiens, UniProt P28223); assay: Calcium mobilization assay, agonist format, 5-HT2A receptor; type: cell-based; conditions: read-out: 5-HT2A agonist Efficacy @ 10 µM
T3 construct: host or cells: unnamed cell lines
T3 sequence (P28223 whole entry): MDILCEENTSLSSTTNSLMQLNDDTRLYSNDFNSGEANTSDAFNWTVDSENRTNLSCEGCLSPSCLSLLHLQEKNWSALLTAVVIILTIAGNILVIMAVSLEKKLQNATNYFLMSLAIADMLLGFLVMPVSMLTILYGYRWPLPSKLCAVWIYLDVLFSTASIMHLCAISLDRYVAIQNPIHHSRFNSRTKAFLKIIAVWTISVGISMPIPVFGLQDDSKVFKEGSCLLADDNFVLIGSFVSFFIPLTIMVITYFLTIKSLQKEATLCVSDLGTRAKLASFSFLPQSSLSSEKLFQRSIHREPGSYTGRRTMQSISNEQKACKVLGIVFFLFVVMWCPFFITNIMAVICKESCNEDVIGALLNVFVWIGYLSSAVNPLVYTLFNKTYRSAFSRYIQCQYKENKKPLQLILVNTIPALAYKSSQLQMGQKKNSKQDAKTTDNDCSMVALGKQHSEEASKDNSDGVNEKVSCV
Description: as §1, §2, §3, §6, §4, §5

[2H]C([2H])([2H])Oc1ccc2c3c([nH]c2c1)CCN(C)CC3 [Compound 1, 3-methyl-8-(trideuteriomethoxy)-2,4,5,6-tetrahydro-1H-azepino[4,5-b]indole]
inhibition (5-HT2C receptor): 95.5%
difference in half-life and intrinsic clearance versus comparator [1]: differences in half-life and intrinsic clearance
half-life at 0.2 μM [1]: 1.35 h
microsomal CLint at 0.2 μM [1]: 17.2 µL/min/mg
CLint scaled at 0.2 μM [1]: 15.4 mL/min/kg
activation at 5 µM (5-HT2B receptor): -8.3%
activation at 10 µM (5-HT2A receptor): 30.4%

[2H]C([2H])([2H])N1CCc2[nH]c3cc(OC)ccc3c2CC1 [Compound 2, 8-methoxy-3-(trideuteriomethyl)-2,4,5,6-tetrahydro-1H-azepino[4,5-b]indole]
inhibition (5-HT2C receptor): 94.5%
difference in half-life and intrinsic clearance versus comparator [1]: differences in half-life and intrinsic clearance
half-life at 0.2 μM [1]: 1.4 h
microsomal CLint at 0.2 μM [1]: 16.6 µL/min/mg
CLint scaled at 0.2 μM [1]: 14.9 mL/min/kg
activation at 5 µM (5-HT2B receptor): -0.4%
activation at 10 µM (5-HT2A receptor): 38%

[2H]C([2H])([2H])Oc1ccc2c3c([nH]c2c1)CCN(C([2H])([2H])[2H])CC3 [Compound 3, 8-(trideuteriomethoxy)-3-(trideuteriomethyl)-2,4,5,6-tetrahydro-1H-azepino[4,5-b]indole]
inhibition (5-HT2C receptor): 95%
difference in half-life and intrinsic clearance versus comparator [1]: differences in half-life and intrinsic clearance
half-life at 0.2 μM [1]: 1.38 h
microsomal CLint at 0.2 μM [1]: 16.8 µL/min/mg
CLint scaled at 0.2 μM [1]: 15.1 mL/min/kg
activation at 5 µM (5-HT2B receptor): -0.7%
activation at 10 µM (5-HT2A receptor): 40%

[2H]C([2H])([2H])Oc1ccc2c3c([nH]c2c1)CCNCC3 [Compound 163, 8-(trideuteriomethoxy)-1,2,3,4,5,6-hexahydroazepino[4,5-b]indole]
inhibition (5-HT2C receptor): 97.7%
difference in half-life and intrinsic clearance versus comparator [1]: significant difference in half-life
intrinsic clearance ratio ([1]; compared with 8-methoxy-1,2,3,4,5,6-hexahydroazepino[4,5-b]indole): > 1.15
half-life at 0.2 μM [1]: 1.44 h
microsomal CLint at 0.2 μM [1]: 16.1 µL/min/mg
CLint scaled at 0.2 μM [1]: 14.5 mL/min/kg
activation at 5 µM (5-HT2B receptor): -0.2%
activation at 10 µM (5-HT2A receptor): 83%

COc1ccc2c3c([nH]c2c1)CCN(C)CC3 [TBG, 8-methoxy-3-methyl-1,2,3,4,5,6-hexahydroazepino[4,5-b]indole, reference compound]
inhibition (5-HT2C receptor): 94.7%
half-life at 0.2 μM [1]: 1.5 h
microsomal CLint at 0.2 μM [1]: 15.6 µL/min/mg
CLint scaled at 0.2 μM [1]: 14 mL/min/kg
activation at 5 µM (5-HT2B receptor): -0.9%
activation at 10 µM (5-HT2A receptor): 38.5%
